Each structure is given as a SMILES string.

We go through 2 compounds from US8716296B2 (Ingenium Pharmaceuticals GmbH, priority 2007, dated 2014).

For one assay, the system named is LPS induced mice. Briefly: LPS in vivo assay, model of cytokine repression in vivo. Conditions: 10 or 30 mg/kg i.p. 30 min prior to LPS, blood 90 min after LPS, ELISA, versus vehicle. Further details: species or system mice (strain C3HeB/FeJ). The method, then:
For the LPS induced model of septic shock, mice receive an intraperitoneal (i.p.) injection of 30 μg bacterial Lipopolysaccharide (LPS; L2630 SIGMA) in saline. Said LPS-mediated initiation of the inflammatory signalling cascade results in increasing blood serum concentrations of cytokines such as e.g. TNFα, IL-6 and IL1β. Blood can be taken from these animals at defined time points. Thereafter, serum will be separated and the samples can be stored at −80° C. until cytokine concentrations are measured using commercial ELISA assays. (A L Moreira et al., Braz J Med Biol Res 1997; 30:1199-1207).
Wildtype mice (strain C3HeB/FeJ) (age, sex and weight matched) were injected with 30 μg LPS (SIGMA) intraperitoneally. 90 minutes after LPS administration these animals were anaesthetized with 0.1 m1/10 g bodyweight Ketamine-Rompun (50/20 mg/ml), and blood for serum preparation was taken via cardiac puncture.
Pharmacological treatment groups (n=4) of LPS mice received intraperitoneal (i. p.) injections of CDK-inhibiting compounds or the vehicle (negative control), respectively. In particular, compounds #1A and 16A were administered.
10 or 30 mg/kg (compound per bodyweight) of a CDK inhibitor, dissolved in 20% DMSO, 5% Tween 80, 10% Tris 1M pH8, 20% PEG400, 45% PBS was administered as a single dosage 30 min prior to LPS stimulation. Vehicle control was administered in the same manner.
90 minutes (min) after LPS stimulation, blood samples were taken from the mice. Previously, the 90 min time point had been identified as the peak of TNF alpha expression in this animal model by a time course experiment.
Blood samples (˜500 μl/animal) from the LPS animals were incubated on wet ice for 30 min after cardiac puncture. Afterwards the samples were centrifuged for 15 min at 13.000 rpm. Serum was separated from the clot and stored frozen at −80° C.
Serum concentrations of TNF alpha and IL6 within the samples were measured by using commercial ELISA Kits (Natutec) according to the manufacturers instructions.
Background: ELISA stands for enzyme-linked immunosorbent assay.

For assay [1], the system named is LPS induced THP-1 macrophages. In words: In vitro THP-1 assay, model of cytokine inhibition. The assay is classed as cell-based, human. The settings on record: differentiated THP-1 cells, 60 min pre-incubation, LPS 4-48 h, ELISA, versus vehicle (DMSO). The protocol:
The human THP-1 cell line can be utilized as an in vitro model of cytokine expression as mediated by Lipopolysaccharide (LPS) or Tumor Necrosis Factorα [TNFα].
Monocytic THP-1 cells (ATCC; TIB-202) can be differentiated into macrophage-like cells expressing pro-inflammatory cytokines like TNFα, IL6 and IL1β upon induction with LPS or by TNFα (autocrine induction) itself.
THP-1 cells are grown in modified RPMI-1640 medium (ATCC, Cat. No. 30-2001) supplemented with 10% FCS and 1% Pen/Strep. For cytokine inhibition assays, cells are seeded at a density of 5×10^5 cells/ml into 6-well plates in standard growth medium supplemented with 100 ng/ml PMA (Sigma, P1585) to induce differentiation into macrophage-like cells. After 24 hours, the medium is replaced with standard growth medium (without PMA) and the cells are incubated for another 48 hours to complete differentiation.
After 72 h of differentiation, the medium is replaced with serum free growth medium, and CDK-inhibiting compounds as well as reference compounds such as positive and negative controls, each dissolved in DMSO are added at concentrations ranging from 0.5 to 5 μM (final concentration of DMSO in the well is 0.1%). Cells are incubated for 60 min with compounds prior to stimulation with 100 ng/ml LPS (Sigma, L2630) for another 4-48 hours. Supernatants are collected and assayed immediately for cytokine expression, e.g. for TNFα, IL-6 and IL-1b using commercially available sandwich ELISA assays (eBioscience, Cat. No 88-7346, 88-7066, 88-7010) or kept frozen at […] until evaluation.
Concentrations of TNFα, IL6 and IL1β within the cell culture supernatants are measured by using commercial ELISA Kits (eBioscience) according to the manufacturers instructions.
CDK-inhibitory compounds #1A, 16A, 20A, and 25A were administered to differentiated THP-1 cells in triplicates as described above (see section 2.). After 60 min of pre-incubation with test or reference compound (SB203580, a p38 inhibitor and BMS345541, an IKK-inhibitor) alone, cells were stimulated with LPS. After incubation for 4-48 h, supernatants were collected and ELISA based determinations of cytokine supernatant concentrations were performed as described in section 3, supra.

Another assay concerns SNI mice. Briefly: Spared nerve injury (SNI) model of chronic neuropathic pain, von Frey assay. The assay is classed as in vivo, mice (strain C3HeB/FeJ). The settings on record: 30 mg/kg p.o., 30 min before measurement, day 107 post SNI, versus vehicle. From the text: As outlined above, the spared nerve injury (SNI) model (see FIG. 1) involves a lesion of two of the three terminal branches of the sciatic nerve (tibial and common peroneal nerves) of experimental animals, leaving the sural nerve intact. SNI results in mechanical and thermal allodynia in the non-injured sural nerve skin territory (Decosterd and Woolf, Pain 2000; 87:149-158. (2) Tsujino et al., Mol. Cel. Neurosci. 2000; 15:170-182).
Wildtype mice (strain C3HeB/FeJ) (age, sex and weight matched) were anesthetized with Hypnorm (0.315 mg/ml fentanyl citrate+10 mg/ml fluanisone; Janssen)/Hypnovel (5 mg/ml midazolam; Roche Applied Sciences)/water at a ratio of 1:1:2 at 4 μl/g prior to surgical preparation. […]
30 mg/kg of a CDK inhibitor, dissolved in 400 μl of 2% Hydroxprolylcellulose; 0.25% Lactic Acid (85% solution) was administered via per oral application 30 min prior to von Frey measurements (mechanical allodynia). […] Reflex nociceptive responses to mechanical stimulation were measured in a von Frey assay 30 min after each injection. […]
Mechanical thresholds of SNI mice were quantified using the up-down method based on Chaplan et al. (1994) and Malmberg and Basbaum (1998). […]

Regarding `CCOc1ccccc1-c1cc(NC(=O)C2CCNCC2)ncn1` [Compound 1A, Piperidine-4-carboxylic acid [6-(2-ethoxy-phenyl)-pyrimidin-4-yl]-amide], in the assay with LPS induced mice, the “IL6 protein concentration in the blood serum” value is “significant repressive effect” and the “TNFα protein concentration in the blood serum” value is “significant repressive effect”. Also, in assay [1], the “IL6 protein concentration in the cell supernatant” value is given as “significant inhibitory effect” and the “TNFα protein concentration in the cell supernatant” value is “significant inhibitory effect”.

With `COc1ccccc1-c1cc(NC(=O)C2CCCNC2)ncn1` (stereo not drawn) [Compound 16A, Piperidine-3-carboxylic acid [6-(2-methoxy-phenyl)-pyrimidin-4-yl]amide], in the assay on LPS induced mice, the “IL6 protein concentration in the blood serum” value was “significant repressive effect” and the “TNFα protein concentration in the blood serum” value was “significant repressive effect”. Also, in assay [1], the “IL6 protein concentration in the cell supernatant” value is reported as “significant inhibitory effect” and the “TNFα protein concentration in the cell supernatant” value is recorded as “significant inhibitory effect”. Besides, the “paw withdrawal threshold to mechanical stimulation (von Frey)” value with SNI mice is given as “significant increase of threshold values”.
